One assay concerns OCI-AML5 cells. Kind of assay: Inhibition of OCI-AML5 cell proliferation (CellTiter-Glo). The class given is cell-based. To be noted: Homo sapiens, OCI-AML-5; OCI-AML5 cells (SOS1 N233Y mutation), 120 hours. As for the experimental part: The following method was used to determine the influence of the compounds of the present invention on OCI-AML5 cells proliferation. OCI-AML5 cells (containing SOS1 N233Y mutation) were purchased from Nanjing Kebai Biotechnology Co., Ltd. and cultured in MEMα medium containing 10% fetal bovine serum, 100 U penicillin, and 100 μg/mL streptomycin. The activities of the cells were determined by CellTiter-Glo® Luminescent Cell Viability Assay Kit (Promega, Art. No. G7573).
The experimental method was operated according to the steps in the kit instruction, which were briefly described as follows: the test compounds were first dissolved in DMSO to prepare storage solutions of 10 mM, and then diluted with culture mediums to prepare test samples. The final concentrations of the compounds were 10000 nM to 0.15 nM. Cells in logarithmic phase were inoculated in a 96-well cell culture plate with 1,000 cells per well, after cultured overnight in 5% CO2 incubator at 37° C., the test compounds were added to the incubator to continue the culture for 120 hours. After the culture was completed, 50 μL of CellTiter-Glo detection solution was added to each well, shaken for 5 minutes and then stood for 10 minutes. Then, a Luminescence mode was used to read the luminescence values of each well of the samples on a microplate reader.

A further assay concerns the target T1, KRAS-G12C/SOS1 (Homo sapiens, UniProt Q07889).
T1 construct: purchased Cisbio 63ADK000CB16PEG
T1 sequence (Q07889 1-1333): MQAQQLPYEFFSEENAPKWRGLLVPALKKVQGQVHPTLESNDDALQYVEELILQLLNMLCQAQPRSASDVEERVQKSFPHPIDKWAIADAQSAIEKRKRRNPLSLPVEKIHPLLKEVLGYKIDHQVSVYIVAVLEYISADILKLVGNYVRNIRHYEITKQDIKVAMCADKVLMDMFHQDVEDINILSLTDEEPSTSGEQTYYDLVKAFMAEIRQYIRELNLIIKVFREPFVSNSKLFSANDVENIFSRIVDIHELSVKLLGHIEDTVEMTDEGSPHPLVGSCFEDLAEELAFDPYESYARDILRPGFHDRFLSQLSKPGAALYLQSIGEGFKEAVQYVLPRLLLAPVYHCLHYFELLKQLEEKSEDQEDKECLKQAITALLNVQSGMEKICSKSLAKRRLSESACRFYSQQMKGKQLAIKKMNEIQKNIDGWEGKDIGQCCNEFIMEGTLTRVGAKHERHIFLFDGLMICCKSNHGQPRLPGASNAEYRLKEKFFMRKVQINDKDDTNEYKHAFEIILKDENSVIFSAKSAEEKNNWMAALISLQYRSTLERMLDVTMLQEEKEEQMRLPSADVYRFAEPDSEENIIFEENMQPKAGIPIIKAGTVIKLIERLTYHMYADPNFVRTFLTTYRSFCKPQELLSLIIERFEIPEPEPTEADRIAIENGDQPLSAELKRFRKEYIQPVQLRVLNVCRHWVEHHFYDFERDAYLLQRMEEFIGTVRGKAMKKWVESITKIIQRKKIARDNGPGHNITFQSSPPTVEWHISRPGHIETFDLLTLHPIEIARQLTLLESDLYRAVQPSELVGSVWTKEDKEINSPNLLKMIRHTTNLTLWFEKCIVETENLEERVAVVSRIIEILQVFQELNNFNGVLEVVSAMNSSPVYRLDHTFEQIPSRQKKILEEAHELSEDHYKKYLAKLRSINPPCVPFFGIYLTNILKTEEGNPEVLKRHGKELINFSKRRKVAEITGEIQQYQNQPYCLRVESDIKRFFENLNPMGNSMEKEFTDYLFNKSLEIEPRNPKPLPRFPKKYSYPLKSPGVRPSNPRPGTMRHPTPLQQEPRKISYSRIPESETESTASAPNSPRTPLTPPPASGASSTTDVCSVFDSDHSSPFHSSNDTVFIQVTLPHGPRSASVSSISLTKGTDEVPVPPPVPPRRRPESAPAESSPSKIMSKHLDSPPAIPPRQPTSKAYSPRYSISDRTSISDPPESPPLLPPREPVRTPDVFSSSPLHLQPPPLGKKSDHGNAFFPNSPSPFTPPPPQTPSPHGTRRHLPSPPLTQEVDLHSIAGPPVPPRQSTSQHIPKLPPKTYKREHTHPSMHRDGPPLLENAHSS
Nature of the assay: Blocking the binding of KRAS G12C protein to SOS1 (Cisbio KRAS-G12C/SOS1 binding assay kit, TR-FRET). To be noted: Tag1-SOS1 and Tag2-KRAS-G12C, TR-FRET 665/620; read-out: IC50 (nM) Inhibition of KRAS-G12C/SOS1 binding. The source says: The following method was used to determine the abilities of compounds of the invention to block the interaction of SOS1 with the KRAS G12C protein in vitro. KRAS-G12C/SOS1 BINDING ASSAY KITS (Art. No. 63ADK000CB16PEG) from Cisbio was used in this method. Please refer to the kit instruction for detailed experimental operations.
The experimental process can be briefly described as follows: diluent buffer (Art. No. 62DLBDDF) was used to prepare a working solution with a concentration of 5× for Tag1-SOS1 and Tag2-KRAS-G12C protein. The test compounds were dissolved in DMSO to prepare storage solutions of 10 mM, and then the solutions were diluted with dilution buffer for later use. First, 2 μL of the test compound (the final concentrations of the reaction system were 10000 nM-0.1 nM) was added to the well, then 4 μL of Tag1-SOS1 5× working solution and 4 μL of Tag2-KRAS-G12C 5× working solution were added, and the above mixture was centrifuged, mixed, and stood for 15 minutes; then 10 μL of premixed anti-Tag1-Tb^3+ and anti-Tag2-XL665 were added, and the mixture was incubated at room temperature for 2 hours; finally, a microplate reader was used in […] mode to measure the fluorescence intensity of each well emitting wavelengths of 620 nm and […] under the excitation wavelength of 304 nm, and the fluorescence intensity ratio 665/620 in each well was calculated. Compared with the fluorescence intensity ratio of a control group (0.1% DMSO), the percentage inhibition rates of the test compounds at each concentration were calculated, and the IC50 values of the compounds were obtained by performing nonlinear regression analysis with logarithmic values of the compound concentration-inhibition rate by GraphPad Prism 5 software, which was shown in Table 1.

The next assay has as its system p-ERK1/2 in DLD-1 cells. Kind of assay: Inhibition of p-ERK1/2 in DLD-1 cells (Cisbio Advanced phospho-ERK1/2 kit). The class given is cell-based. To be noted: Homo sapiens; DLD-1 cells (KRAS G13D mutation), hEGF 5 nM stimulation; read-out: IC50 (nM) Inhibition on p-ERK½ in DLD-1 cells. From the text:
The following method was used to determine the inhibition activities of the compounds of the present invention on p-ERK1/2 in DLD-1 cells. The Advanced phospho-ERK1/2 (Thr202/tyr2O4) kit (Art. No. 64AERPEH) from Cisbio was used in this method. Please refer to the kit instruction for detailed experimental operations. DLD-1 cells (containing KRAS G13D mutation) were purchased from the Cell Resource Center of Shanghai Institutes for Biological Sciences, Chinese Academy of Sciences.
The experimental process can be briefly described as follows: DLD-1 cells were cultured in RPMI 1640 complete medium containing 10% fetal bovine serum, 100 U penicillin, 100 μg/mL streptomycin and 1 mM Sodium Pyruvate. DLD-1 cells were plated in a 96-well plate at 30,000 cells per well, after cultured overnight in 5% CO2 incubator at 37° C. with complete culture medium. The test compounds were dissolved in DMSO to prepare storage solutions of 10 mM, and then diluted with RPMI 1640 basic mediums. 90 μL of RPMI 1640 basic mediums containing the test compounds at the corresponding concentration were added to each well. The final concentrations of the test compounds in the reaction system were 10,000 nM to 0.15 nM, and were placed in a cell culture incubator for 3 hours and 40 minutes. Subsequently, 10 μL of hEGF (purchased from Roche, Art. No. 11376454001) prepared with RPMI 1640 basic medium was added to a final concentration of 5 nM, and placed in the incubator for culturing for 20 minutes. The cell supernatant was discarded, and the cells were washed with PBS on ice-bath. Then, 45 μl of 1× cell phospho/total protein lysis buffer (component of Advanced phospho-ERK1/2 kit) was added to each well for lysis. The 96-well plate was placed on ice for 0.5 hours to lyse, and then the lysate was detected according to the instruction of the Advanced phospho-ERK1/2 (Thr202/tyr2O4) kit. Finally, the microplate reader was used in […] mode to measure the fluorescence intensity of each well emitting wavelengths of 620 nm and […] under the excitation wavelength of 304 nm, and the fluorescence intensity ratio 665/620 in each well was calculated. By comparing with the fluorescence intensity ratio of a control group (0.1% DMSO), the percentage inhibition rates of the test compounds at each concentration were calculated, and the IC50 values of the compounds were obtained by performing nonlinear regression analysis with logarithmic values of the compound concentration-inhibition rate by GraphPad Prism 5 software, which can be seen in Table 3.

The next assay concerns NCI-H358 cells. Kind of assay: Inhibition of NCI-H358 cell proliferation under 3D non-anchored conditions (CellTiter-Glo 3D). The class given is cell-based. Particulars: Homo sapiens, NCI-H358 cells (KRAS G12C mutation), 120 hours. How it is done:
The following method was used to determine the effects of the compounds of the present invention on NCI-H358 cell proliferation under three-dimensional (3D) non-anchored conditions. NCI-H358 cells (containing KRAS G12C mutation) were purchased from the Cell Resource Center of Shanghai Institutes for Biological Sciences, Chinese Academy of Sciences, and cultured in RPMI 1640 medium containing 10% fetal bovine serum, 100 U penicillin, 100 μg/mL streptomycin and 1 mM Sodium Pyruvate. The activities of the cells were determined by CellTiter-Glo® 3D Cell Viability Assay Kit (Promega, Art. No. G9683).
The experimental method was operated according to the steps in the kit instruction, which can be briefly described as follows: the test compounds were first dissolved in DMSO to prepare storage solutions of 10 mM, and then diluted with culture mediums to prepare test samples. The final concentrations of the compounds were 10000 nM to 0.15 nM. Cells in logarithmic phase were inoculated in an ultra-low adsorption 384-well cell culture plate (PerkinElmer, #3830) with 2000 cells per well, and the test compounds were added and cultured for 120 hours. After the culture was completed, 30 μL of CellTiter-Glo 3D detection solution was added to each well, shaken for 30 minutes and then stood for 120 minutes. Then, a Luminescence mode was used to read the luminescence values of each well of the samples on a microplate reader. By comparing with the numerical value of a control group (0.1% DMSO), the percentage inhibition rates of the compounds at each concentration were calculated, and the IC50 values of the compounds inhibiting cell proliferation were obtained by performing nonlinear regression analysis with logarithmic values of the compound concentration-inhibition rate by GraphPad Prism 5 software, which can be seen in Table 4.

Consider `COc1cc2nc(C)nc(N[C@H](C)c3cccc(C#N)c3C)c2cc1N1CCN(C)CC1` [Compound 10, (R)-3-(1-((7-methoxy-2-methyl-6-(4-methylpiperazin-1-yl)quinazolin-4-yl)amino)ethyl)-2-methylbenzonitrile], for which the IC50 in the assay on OCI-AML5 cells came to 16.8 nM; on KRAS-G12C/SOS1, 36.7 nM.
In the same order, the values of `COc1cc2nc(C)nc(N[C@H](C)c3cccc(C#N)c3C)c2cc1N1CC(C#N)C1` [Compound 12, (R)-1-(4-((1-(3-cyano-2-methylphenyl)ethyl)amino)-7-methoxy-2-methylquinazolin-6-yl)azetidine-3-carbonitrile] are 23 nM and 88.4 nM.
For the compound `COc1cc2nc(C)nc(N[C@H](C)c3cccc(C#N)c3C)c2cc1N1CCN(S(C)(=O)=O)CC1` [Compound 13, (R)-3-(1-((7-methoxy-2-methyl-6-(4-(methylsulfonyl)piperazin-1-yl)quinazolin-4-yl)amino)ethyl)-2-methylbenzonitrile], the IC50 with OCI-AML5 cells was found to be 25.4 nM; in the assay on p-ERK1/2 in DLD-1 cells, 73.5 nM.
In the case of `COc1cc2nc(C)nc(N[C@H](C)c3cccc(C#N)c3C)c2cc1N1CCC(N2CCN(C)CC2)CC1` [Compound 15, (R)-3-(1-((7-methoxy-2-methyl-6-(4-(4-methylpiperazin-1-yl)piperidin-1-yl)quinazolin-4-yl)amino)ethyl)-2-methylbenzonitrile], the IC50 in the assay with OCI-AML5 cells turned out to be 3.7 nM; on KRAS-G12C/SOS1, 31.7 nM.
For `COc1cc2nc(C)nc(N[C@H](C)c3cccc(C#N)c3C)c2cc1N1CCC2(CC1)CNC2` [Compound 16c, (R)-3-(1-((7-methoxy-2-methyl-6-(2,7-diazaspiro[3.5]nonan-7-yl)quinazolin-4-yl)amino)ethyl)-2-methylbenzonitrile] the same measures were 13.1 nM and 20.3 nM.
In the case of `COc1cc2nc(C)nc(N[C@H](C)c3cccc(C#N)c3C)c2cc1N1CCC(OC)CC1` [Compound 17, (R)-3-(1-((7-methoxy-6-(4-methoxypiperidin-1-yl)-2-methylquinazolin-4-yl)amino)ethyl)-2-methylbenzonitrile], the IC50 in the assay on OCI-AML5 cells is 10.6 nM; in the assay on p-ERK1/2 in DLD-1 cells it was 29.2 nM.
With `COc1cc2nc(C)nc(N[C@H](C)c3cccc(C#N)c3C)c2cc1N1CCC2(CCN(C(C)=O)CC2)CC1` [Compound 18, (R)-3-(1-((6-(9-acetyl-3,9-diazaspiro[5.5]undecan-3-yl)-7-methoxy-2-methylquinazolin-4-yl)amino)ethyl)-2-methylbenzonitrile], the IC50 amounted to 2.6 nM in the assay with OCI-AML5 cells and 6.9 nM with NCI-H358 cells.
On to `COc1cc2nc(C)nc(N[C@H](C)c3cccc(C#N)c3C)c2cc1N1CCN(CCO)CC1` [Compound 20, (R)-3-(1-((6-(4-(2-hydroxyethyl)piperazin-1-yl)-7-methoxy-2-methylquinazolin-4-yl)amino)ethyl)-2-methylbenzonitrile], for which the IC50 with NCI-H358 cells is 52.4 nM.

For the origin of these results see patent US20240382475A1, “Quinazoline Derivative, Or Preparation Method Therefor And Use Thereof” (Zhejiang Hisun Pharmaceutical Co., Ltd., priority 2021, published 2024).
